Values after ≈ are worked out from the molar mass of the structure shown. Each block holds one compound with its values, some of them ahead of it.
How the values were obtained:
Assay type in all cases: cell-based
[1] = tested on: Pseudomonas aeruginosa; experiment: MIC against clinical isolates; details: unit assumed; for MIC Pseudomonas aeruginosa S-1: Table 6-4, clinical isolate
[2] = tested on: Klebsiella pneumoniae; experiment: MIC against clinical isolates; details: unit assumed; for MIC Klebsiella pneumoniae GN 917 / MIC Klebsiella pneumoniae GN 4081: Table 6-4, clinical isolate
[3] = tested on: Proteus mirabilis; experiment: MIC against clinical isolates; details: Table 6-5, clinical isolate; unit assumed
[4] = tested on: Escherichia coli NIHJ; experiment: MIC, plate method, standard strains; details: unit assumed; for MIC Escherichia coli NIHJ: Table 4, standard strain
Method in brief: (§1)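 Test compound was incorporated into Heart infusion agar at pH 7.4, plates were inoculated with 10^4 cells each (suspension at 10^6 cells/ml), and the minimum inhibitory concentration was recorded.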

[5] = tested on: Klebsiella pneumoniae; experiment: MIC, plate method, standard strains; details: unit assumed
Method in brief: as §1

[6] = tested on: Proteus vulgaris 3027; experiment: MIC, plate method, standard strains; details: unit assumed
Method in brief: as §1

[7] = tested on: Pseudomonas aeruginosa I.F.O.; experiment: MIC, plate method, standard strains; details: Table 4, standard strain; unit assumed
Method in brief: as §1

[8] = tested on: Staphylococcus aureus 209p; experiment: MIC, plate method, standard strains; details: unit assumed
Method in brief: as §1

[9] = tested on: Staphylococcus aureus; experiment: MIC against clinical isolates; details: unit assumed
[10] = tested on: Proteus rettgeri; experiment: MIC against clinical isolates; details: unit assumed
[11] = tested on: Proteus vulgaris; experiment: MIC against clinical isolates; details: Table 6-5, clinical isolate; unit assumed
[12] = tested on: Escherichia coli; experiment: MIC against clinical isolates; details: unit assumed
[13] = tested on: Proteus morganii; experiment: MIC against clinical isolates; details: Table 6-5, clinical isolate; unit assumed
[14] = tested on: Shigella flexneri; experiment: MIC against clinical isolates; details: Table 5-5, clinical isolate; unit assumed
Experimental: (§2) The minimum inhibitory concentration (MIC) was determined by the plate method disclosed in "Chemotherapy" (Japan), Vol. 16, (1968), pages 98-99. The culture medium used was a Heart infusion agar (pH 7.4). The number of the cells per plate used in the inoculum was 10^4 (10^6 cells/ml).
(§3) MIC was determined in the same manner as in the preceding paragraph (1).

[15] = tested on: Shigella sonnei; experiment: MIC against clinical isolates; details: Table 5-5, clinical isolate; unit assumed
Experimental: as §2, §3

- MIC Pseudomonas aeruginosa GN ([1]; Table 6-3, clinical isolate, strain number not given): 12.5 µg/mL (≈ 18.9 µM)
- MIC Pseudomonas aeruginosa GN4 ([1]; Table 6-3, clinical isolate): 25 µg/mL (≈ 37.9 µM)
- MIC Pseudomonas aeruginosa GN 82 ([1]; Table 6-3, clinical isolate): 12.5 µg/mL (≈ 18.9 µM)
- MIC Pseudomonas aeruginosa GN 221 ([1]; Table 6-3, clinical isolate): 6.25 µg/mL (≈ 9.47 µM)
- MIC Pseudomonas aeruginosa GN 376 ([1]; Table 6-3, clinical isolate): 12.5 µg/mL (≈ 18.9 µM)
- MIC Pseudomonas aeruginosa GN 1035 ([1]; Table 6-3, clinical isolate): 25 µg/mL (≈ 37.9 µM)
- MIC Pseudomonas aeruginosa GN 1091 ([1]; Table 6-3, clinical isolate): 25 µg/mL (≈ 37.9 µM)
- MIC Pseudomonas aeruginosa GN 2565 ([1]; Table 6-3, clinical isolate): 12.5 µg/mL (≈ 18.9 µM)
- MIC Pseudomonas aeruginosa S-1 [1]: 25 µg/mL (≈ 37.9 µM)
- MIC Klebsiella pneumoniae GN 917 [2]: 0.39 µg/mL (≈ 0.591 µM)
- MIC Klebsiella pneumoniae GN 4081 [2]: 3.13 µg/mL (≈ 4.74 µM)
- MIC Proteus mirabilis [3]: 1.56 µg/mL (≈ 2.36 µM)
- MIC Escherichia coli NIHJ [4]: < 0.1 µg/mL
- MIC Klebsiella pneumoniae ([5]; Table 4, standard strain): 0.2 µg/mL (≈ 0.303 µM)
- MIC Proteus vulgaris 3027 ([6]; Table 4, standard strain): 0.79 µg/mL (≈ 1.2 µM)
- MIC Pseudomonas aeruginosa I.F.O. [7]: 12.5 µg/mL (≈ 18.9 µM)
- MIC Staphylococcus aureus 209p ([8]; Table 4, standard strain): 3.13 µg/mL (≈ 4.74 µM)
- MIC Staphylococcus aureus F-1 ([9]; Table 6-1, clinical isolate): 3.13 µg/mL (≈ 4.74 µM)
- MIC Staphylococcus aureus MS 8588 ([9]; Table 6-1, clinical isolate): 3.13 µg/mL (≈ 4.74 µM)
- MIC Staphylococcus aureus MS 8596 ([9]; Table 6-1, clinical isolate): 3.13 µg/mL (≈ 4.74 µM)
- MIC Staphylococcus aureus MS 8619 ([9]; Table 6-1, clinical isolate): 1.56 µg/mL (≈ 2.36 µM)
- MIC Staphylococcus aureus MS 8684 ([9]; Table 6-1, clinical isolate): 1.56 µg/mL (≈ 2.36 µM)
- MIC Proteus rettgeri ([10]; Table 6-5, clinical isolate): 1.56 µg/mL (≈ 2.36 µM)
- MIC Proteus vulgaris [11]: 0.39 µg/mL (≈ 0.591 µM)
- MIC Escherichia coli GN 3435 ([12]; Table 6-2, clinical isolate): 0.39 µg/mL (≈ 0.591 µM)
- MIC Escherichia coli GN 3452 ([12]; Table 6-2, clinical isolate): 0.39 µg/mL (≈ 0.591 µM)
- MIC Escherichia coli GN 3465 ([12]; Table 6-2, clinical isolate): 1.56 µg/mL (≈ 2.36 µM)
- MIC Escherichia coli K-2 ([12]; Table 6-2, clinical isolate): 0.78 µg/mL (≈ 1.18 µM)
- MIC Escherichia coli K-4 ([12]; Table 6-2, clinical isolate): 0.39 µg/mL (≈ 0.591 µM)
- MIC Proteus morganii [13]: 1.56 µg/mL (≈ 2.36 µM)
Structure (SMILES): CCN1CCN(C(=O)NC(C(=O)NC2C(=O)N3C(C(=O)O)=C(CSc4nnnn4CC)CSC23)c2ccc(O)cc2)C(=O)C1=O (single isomer, unassigned) [Compound No. 78]

Structure (SMILES): CCN1CCN(C(=O)NC(C(=O)NC2C(=O)N3C(C(=O)O)=C(CSc4nncs4)CSC23)c2ccc(O)cc2)C(=O)C1=O (single isomer, unassigned) [Compound No. 79]
- MIC Pseudomonas aeruginosa GN4 ([1]; Table 6-3, clinical isolate): 12.5 µg/mL (≈ 19.3 µM)
- MIC Pseudomonas aeruginosa GN 82 ([1]; Table 6-3, clinical isolate): 12.5 µg/mL (≈ 19.3 µM)
- MIC Pseudomonas aeruginosa GN 221 ([1]; Table 6-3, clinical isolate): 6.25 µg/mL (≈ 9.65 µM)
- MIC Pseudomonas aeruginosa GN 376 ([1]; Table 6-3, clinical isolate): 6.25 µg/mL (≈ 9.65 µM)
- MIC Pseudomonas aeruginosa GN 1035 ([1]; Table 6-3, clinical isolate): 25 µg/mL (≈ 38.6 µM)
- MIC Pseudomonas aeruginosa GN 1091 ([1]; Table 6-3, clinical isolate): 12.5 µg/mL (≈ 19.3 µM)
- MIC Pseudomonas aeruginosa GN 2565 ([1]; Table 6-3, clinical isolate): 25 µg/mL (≈ 38.6 µM)
- MIC Pseudomonas aeruginosa S-1 [1]: 25 µg/mL (≈ 38.6 µM)
- MIC Klebsiella pneumoniae GN 917 [2]: 0.78 µg/mL (≈ 1.2 µM)
- MIC Klebsiella pneumoniae GN 4081 [2]: 12.5 µg/mL (≈ 19.3 µM)
- MIC Proteus mirabilis [3]: 1.56 µg/mL (≈ 2.41 µM)
- MIC Escherichia coli NIHJ [4]: < 0.1 µg/mL
- MIC Klebsiella pneumoniae ([5]; Table 4, standard strain): 0.79 µg/mL (≈ 1.22 µM)
- MIC Proteus vulgaris 3027 ([6]; Table 4, standard strain): 3.13 µg/mL (≈ 4.83 µM)
- MIC Pseudomonas aeruginosa I.F.O. [7]: 3.13 µg/mL (≈ 4.83 µM)
- MIC Staphylococcus aureus 209p ([8]; Table 4, standard strain): 1.57 µg/mL (≈ 2.42 µM)
- MIC Staphylococcus aureus F-1 ([9]; Table 6-1, clinical isolate): 1.56 µg/mL (≈ 2.41 µM)
- MIC Staphylococcus aureus MS 8588 ([9]; Table 6-1, clinical isolate): 3.13 µg/mL (≈ 4.83 µM)
- MIC Staphylococcus aureus MS 8596 ([9]; Table 6-1, clinical isolate): 3.13 µg/mL (≈ 4.83 µM)
- MIC Staphylococcus aureus MS 8619 ([9]; Table 6-1, clinical isolate): 1.56 µg/mL (≈ 2.41 µM)
- MIC Staphylococcus aureus MS 8684 ([9]; Table 6-1, clinical isolate): 1.56 µg/mL (≈ 2.41 µM)
- MIC Proteus rettgeri ([10]; Table 6-5, clinical isolate): 3.13 µg/mL (≈ 4.83 µM)
- MIC Proteus vulgaris [11]: 0.39 µg/mL (≈ 0.602 µM)
- MIC Escherichia coli GN 3435 ([12]; Table 6-2, clinical isolate): 0.39 µg/mL (≈ 0.602 µM)
- MIC Escherichia coli GN 3452 ([12]; Table 6-2, clinical isolate): 0.39 µg/mL (≈ 0.602 µM)
- MIC Escherichia coli GN 3465 ([12]; Table 6-2, clinical isolate): 3.13 µg/mL (≈ 4.83 µM)
- MIC Escherichia coli K-2 ([12]; Table 6-2, clinical isolate): 1.56 µg/mL (≈ 2.41 µM)
- MIC Escherichia coli K-4 ([12]; Table 6-2, clinical isolate): 0.78 µg/mL (≈ 1.2 µM)
- MIC Proteus morganii [13]: 1.56 µg/mL (≈ 2.41 µM)

Structure (SMILES): CCCCCCCCN1CCN(C(=O)N[C@@H](C(=O)N[C@@H]2C(=O)N3[C@@H]2SC(C)(C)[C@@H]3C(=O)O)c2ccccc2)C(=O)C1 [Compound 16]
- MIC Shigella flexneri JS 11215 [14]: 6.25 µg/mL (≈ 10.6 µM)
- MIC Shigella flexneri JS 11839 [14]: 0.79 µg/mL (≈ 1.34 µM)
- MIC Shigella sonnei JS 11232 [15]: 6.25 µg/mL (≈ 10.6 µM)
- MIC Shigella sonnei JS 11755 [15]: 1.57 µg/mL (≈ 2.67 µM)
- MIC Pseudomonas aeruginosa GN 82 ([1]; Table 5-3, clinical isolate): 6.25 µg/mL (≈ 10.6 µM)
- MIC Pseudomonas aeruginosa GN 2987 ([1]; Table 5-3, clinical isolate): 3.13 µg/mL (≈ 5.33 µM)
- MIC Klebsiella pneumoniae GN 3850 ([2]; Table 5-4, clinical isolate): 3.13 µg/mL (≈ 5.33 µM)
- MIC Esche--richin coil NIHJ ([4]; Table 3, standard strain): < 1.57 µg/mL
- MIC Klebsiella pneumoniae ([5]; Table 3, standard strain): 1.57 µg/mL (≈ 2.67 µM)
- MIC Proteus vulgaris 3027 ([6]; Table 3, standard strain): < 1.57 µg/mL
- MIC Staphylococcus aureus 209p ([8]; Table 3, standard strain, Heart infusion agar pH 7.4): < 1.57 µg/mL
- MIC Staphylococcus aureus F-1 ([9]; Table 5-1, clinical isolate): 6.25 µg/mL (≈ 10.6 µM)
- MIC Staphylococcus aureus F-4 ([9]; Table 5-1, clinical isolate): 6.25 µg/mL (≈ 10.6 µM)
- MIC Staphylococcus aureus MS 8588 ([9]; Table 5-1, clinical isolate): 3.13 µg/mL (≈ 5.33 µM)
- MIC Staphylococcus aureus MS 8596 ([9]; Table 5-1, clinical isolate): 3.13 µg/mL (≈ 5.33 µM)
- MIC Staphylococcus aureus MS 8684 ([9]; Table 5-1, clinical isolate): 3.13 µg/mL (≈ 5.33 µM)
- MIC Staphylococcus aureus MS 8713 ([9]; Table 5-1, clinical isolate): 3.13 µg/mL (≈ 5.33 µM)
- MIC Proteus rettgeri ([10]; Table 5-6, clinical isolate): 6.25 µg/mL (≈ 10.6 µM)
- MIC Escherichia coli GN 3435 ([12]; Table 5-2, clinical isolate): 1.57 µg/mL (≈ 2.67 µM)
- MIC Escherichia coli GN 3452 ([12]; Table 5-2, clinical isolate): 1.57 µg/mL (≈ 2.67 µM)
- MIC Escherichia coli GN 3481 ([12]; Table 5-2, clinical isolate): 3.13 µg/mL (≈ 5.33 µM)
- MIC Escherichia coli K-1 ([12]; Table 5-2, clinical isolate): 1.57 µg/mL (≈ 2.67 µM)
- MIC Escherichia coli K-2 ([12]; Table 5-2, clinical isolate): 3.13 µg/mL (≈ 5.33 µM)
- MIC Escherichia coli K-4 ([12]; Table 5-2, clinical isolate): 3.13 µg/mL (≈ 5.33 µM)
